The values below come from US10588934B2, “Opioid peptide” (priority 2014, dated 2020).

Read-outs that look alike come from different tables or passages of the source. Ends that are not written are not given here.

Data set [1] concerns Swiss mice. Type of data set: in vivo, Mus musculus. As to the method: (§1) In vivo analyzes: Tests were carried out on Swiss mice of the Mus musculus species, in which nociception tests (hot plate and tail removal test) were used according to Le Bars et al. (2001). Injections were administered via intraperitoneal (IP). Doses were based upon dose and molaridade of the morphine (10 mg/kg animal).
(§2) FIGS. 1,2,3 and 4 represent the raw data obtained from the experiments after statistical analysis. The symbols (*, **, #) indicate the beginning of the statistically significant activity (S) or the statistically non-significant differences (NS). Analyzes of opioid activity were performed in two classical models of studies for this activity: Tail Flick or Hot Plate test.

The test system of data set [2] is Swiss mice. The data set is described as follows: Tail flick (tail removal) nociception test. Type of data set: in vivo, Mus musculus. As to conditions: for activity profile of the group given substance+naloxone compared with saline: with serial naloxone 4 mg/kg. The protocol:
as §1, §2

In data set [3] the test system is trypsin. As to conditions: 37° C., 15 minutes to 4 hours, MALDI.
Protocol: Representation of the fragments obtained at the different incubation times with the enzyme trypsin. Analysis performed by mass spectrometry, MALDI. The first spectrum, marked with the letter A, refers to the time of 15 minutes; The second spectrum marked with the letter B indicates the time of 30 minutes; C indicates the time of 1 hour; D indicates the time of 2 hours; E indicates the time of 4 hours and, finally, F is the control peptide (SEQ ID NO: 2).

Take `C=CCN1CC[C@]23c4c5ccc(O)c4O[C@H]2C(=O)CC[C@@]3(O)[C@H]1C5` [naloxone, reference compound]: the “activity profile of naloxone alone compared with saline” value is given as “no significant differences in activity profile” in data set [1] (hot plate, naloxone 4 mg/kg) and “no significant differences in activity profile” in data set [2] (tail-flick, naloxone 4 mg/kg).
Take “SEQ ID NO: 1: opioid peptide of formula TyrProPhe-X1-TrpGlyGly-X2-ProPro (X1 Gly or Lys; X2 Ile or Val); exact sequence not printed in the text (YPFGWGGIPP)”: the “time from which there were no statistically significant differences from morphine” value in data set [1] (hot plate, IP, morphine 10 mg/kg, P>0.05) amounted to 60 min. Moreover, in data set [1] (hot plate, IP, test of 240 min), the “persistence of the significant difference in relation to saline” value is recorded as “at the time of 120 minutes, there was no significant difference” and the “time at which statistically significant antinociceptive activity started, in relation to saline” value is 60 min. Besides, the “difference between peptide alone and peptide+naloxone (naloxone reversal)” value in data set [1] (hot plate, serial naloxone 4 mg/kg, later discontinued) was “no significant differences only at 210 minutes and 240 minutes”. In data set [1] (hot plate, substance+naloxone group), the “activity after administration of naloxone was discontinued” value is given as “returned to action”. In addition, in data set [1] (mouse, in vivo), the “cumulative effect over time (area below the curve)” value is “higher cumulative effect similar to morphine and Leu-encefaiina”; the “difference from Leu-enkephalin” value was “no statistically significant differences”. In addition, the “cumulative effect over time (area under the curve)” value in data set [2] (tail flick, compared with morphine and Leu-enkephalin) is “greater than morphine and similar to Leu-enkephalin”. Moreover, the “time from which there was no significant difference from Leu-enkephalin (peptide positive control)” value in data set [2] (tail-flick, IP, Leu-enkephalin 19.3 mg/kg, P>0.05) is on record as “no significant difference throughout the assay”. For the same compound, in data set [2] (tail-flick, IP, dose equimolar to morphine 10 mg/kg, test of 240 min), the “time at which statistically significant antinociceptive action started, in relation to saline” value is 90 min. Further, in data set [2] (tail-flick, IP, morphine 10 mg/kg), the “time from which there was no significant difference from morphine (positive control)” value came out at 90 min. For the same compound, the “time up to which the significant antinociceptive action lasted, in relation to saline” value in data set [2] (tail-flick, IP, test of 240 min) turned out to be 240 min. Further, the “difference between peptide alone and peptide+naloxone (naloxone reversal)” value in data set [2] (tail-flick, serial hourly naloxone 4 mg/kg, P<0.001) is given as “Except for the time of 30 min, there were significant differences”. In addition, the “activity profile of the group given substance+naloxone compared with saline” value in data set [2] (tail-flick) is “no significant differences in activity profile”.
On to “YGGFL [Leu-enkephalin, reference compound]”, for which the “activity after administration of naloxone was discontinued” value in data set [1] (mouse, in vivo) was “activity has also been resumed”. The “activity profile of the group given substance+naloxone compared with saline” value in data set [1] (mouse, in vivo) was “no significant differences in activity profile”; in data set [2] (tail-flick) it was “no significant differences in activity profile”.
YPFKWGGVPP [SEQ ID NO: 2]: in data set [3], the “intensity of the major (precursor ion) peak during incubation with the enzyme” value is “will reduce its intensity”.
